Test results as given in patent US20220411439A1, “POLYMORPHS OF A MACROCYCLIC KINASE INHIBITOR” (TURNING POINT THERAPEUTICS, INC., priority 2019, published 2022).
Like-named read-outs stand apart in the source and are kept apart here.

Target: T1, Ba/F3 KIF5B-RET (Homo sapiens, UniProt P07949, cells depend on it, form not given)
T1 construct: IC50 (nM); other: Experiment 1; other: Experiment 2; fused on or other part: P33176 (Kinesin-1 heavy chain)
Experiment: Compound I anti-cell proliferation comparison (FIG. 5A, 5B)
Type: cell-based
Settings: for GI50: read-out: IC50 (the source's name)
Text: The KIF5B-RET gene was synthesized at GenScript and cloned into pCDH-CMV-MCS-EF1-Puro plasmid (System Biosciences, Inc). KIF5B-RET point mutation V804M and G810C were generated at GenScript by PCR and confirmed by sequencing. Ba/F3-KIF5B-RET wild type and mutant were generated by transducing Ba/F3 cells with lentivirus containing KIF5B-RET wide type or mutant. Stable cell lines were selected by puromycin treatment, followed by IL-3 withdrawal. Briefly, 5×10^6 Ba/F3 cells were transduced with lentivirus supernatant in the presence of 8 μg/mL protamine sulfate. The transduced cells were subsequently selected with 1 μg/mL puromycin in the presence of IL3-containing medium RPMI1640, plus 10% FBS. After 10-12 days of selection, the surviving cells were further selected for […] independent growth.
Two thousand cells per well were seeded in 384 well white plate for 24 hrs, and then treated with compounds for 72 hours (37° C., 5% CO2). Cell proliferation was measured using CellTiter-Glo luciferase-based ATP detection assay (Promega) following the manufactures's protocol. IC50 determinations were performed using GraphPad Prism software (GraphPad, Inc., San Diego, Calif.).

T1 sequence (P07949 whole entry G810C, form open, the tested form may be a part): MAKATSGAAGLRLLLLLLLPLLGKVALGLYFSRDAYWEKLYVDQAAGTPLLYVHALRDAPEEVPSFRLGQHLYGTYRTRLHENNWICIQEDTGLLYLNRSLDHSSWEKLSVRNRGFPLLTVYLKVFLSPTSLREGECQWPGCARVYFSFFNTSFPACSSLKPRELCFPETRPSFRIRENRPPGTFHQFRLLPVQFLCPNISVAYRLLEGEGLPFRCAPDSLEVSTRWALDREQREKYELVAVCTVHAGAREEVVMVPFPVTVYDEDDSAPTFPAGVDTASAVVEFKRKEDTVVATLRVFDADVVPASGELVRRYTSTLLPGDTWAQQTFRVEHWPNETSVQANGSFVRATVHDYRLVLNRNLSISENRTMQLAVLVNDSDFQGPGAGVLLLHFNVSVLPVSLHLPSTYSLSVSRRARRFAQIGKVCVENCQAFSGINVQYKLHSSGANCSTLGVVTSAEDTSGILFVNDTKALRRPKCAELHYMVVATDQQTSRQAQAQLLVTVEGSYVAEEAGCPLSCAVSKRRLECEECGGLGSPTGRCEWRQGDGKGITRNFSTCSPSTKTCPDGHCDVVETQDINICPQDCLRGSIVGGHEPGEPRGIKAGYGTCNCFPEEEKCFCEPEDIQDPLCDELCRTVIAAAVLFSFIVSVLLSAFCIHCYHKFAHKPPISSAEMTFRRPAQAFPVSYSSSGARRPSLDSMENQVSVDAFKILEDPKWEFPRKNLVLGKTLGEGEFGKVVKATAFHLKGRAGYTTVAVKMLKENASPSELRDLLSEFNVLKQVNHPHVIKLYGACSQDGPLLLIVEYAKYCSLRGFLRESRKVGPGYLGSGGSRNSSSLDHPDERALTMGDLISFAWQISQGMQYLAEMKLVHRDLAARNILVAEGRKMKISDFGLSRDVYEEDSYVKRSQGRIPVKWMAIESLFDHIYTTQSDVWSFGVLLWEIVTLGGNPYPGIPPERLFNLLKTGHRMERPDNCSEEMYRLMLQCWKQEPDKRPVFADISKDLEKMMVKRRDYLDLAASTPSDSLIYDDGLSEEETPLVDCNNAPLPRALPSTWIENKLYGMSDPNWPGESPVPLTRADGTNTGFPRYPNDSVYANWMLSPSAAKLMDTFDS

COc1ccc(CN2C3CC2CN(c2ccc(-c4cc(OCC(C)(C)O)cn5ncc(C#N)c45)cn2)C3)cn1 [LOXO-292]
IC75 (Experiment 1): 1.021 µM | IC90 (Experiment 1): 3.45 µM | GI50 (Experiment 1): 0.301 µM | IC75 (Experiment 2): 0.7914 µM | IC90 (Experiment 2): 2.37 µM | GI50 (Experiment 2): 0.364 µM
